Experimental findings from patent publication US8143418B2, “Dimeric small molecule potentiators of apoptosis” (Board of Regents, The University of Texas System, priority 2004, dated 2012) are described below.

This assay deals with Wap-ras tumors. The experiment in a line: In vivo therapy in the WAP-RAS transgenic model. On the set-up: species or system mice. Conditions: mimetic 20 mpk po every 12 hours; Paclitaxel 5 mpk ip.

Method: Mimetic and Paclitaxel combination efficacy is also evaluated in the Wap-ras transgenic model.
Mimetics (20 mpk/dosing po) were dissolved in 20% hydroxyl-propyl-betacyclodexatrin (Vehicle I). 0.2 ml of mimetic solution is the oral dosing volume. Paclitaxel (5 mpk/dosing ip) was dissolved in a diluted ethanol/cremophor EL solution (vehicle II) and the i.p. dosing volume for paclitaxel was 0.1 ml.
The mice are weighed, randomized, and ear-marked on Day 0. Mimetic treatment and Vehicle I treatment began on Day 1 and continued every 12 hours until Day 21. Paclitaxel and Vehicle II treatments are started on Day 4 and continued daily on Day 5, 6, and 7.

Turning to `CC(=O)O[C@H]1C(=O)[C@@]2(C)[C@H]([C@H](OC(=O)c3ccccc3)[C@]3(O)C[C@H](OC(=O)[C@H](O)[C@@H](NC(=O)c4ccccc4)c4ccccc4)C(C)=C1C3(C)C)[C@]1(OC(C)=O)CO[C@@H]1C[C@@H]2O` [Paclitaxel], the “tumor response to treatment” value was “do not respond”.
